This note sets out measurements from patent US10533003B2, “Polyheteroarl histone deacetylase inhibitors and their use in therapy” (Karus Therapeutics Limited, priority 2014, dated 2020).

Each structure is given as a SMILES string.

For one assay, the target named is T1, Human HDAC1 (Homo sapiens, UniProt Q13547).
T1 construct: full length with C-terminal His-tag and C-terminal FLAG-tag; His-tag (C); FLAG-tag (C); host or cells: baculovirus expression system
In words: Biochemical HDAC inhibition assay, acetylated AMC-labeled peptide substrate, HDAC1. To be noted: 2 hours at 30° C., read-out: IC50 (nM) HDAC 1. How it is done:
(§1) Activity against all zinc-dependent HDACs 1 to 11 was assessed by using an acetylated AMC-labeled peptide substrate. The substrate RHKKAc was used for all class I and IIb HDACs; for HDAC8, the substrate used was RHKAcKAc. Activity against the class IIa HDACs (HDAC4, 5, 7, 9) was determined using a class IIa-specific substrate, Acetyl-Lys(trifluoroacetyl)-AMC (Lahm et al, 2007, PNAS, 104, 17335-17340). All assays were based on the AMC-labeled substrate and developer combination.
(§2) The protocol involved a two-step reaction: first, the substrate with the acetylated lysine side chain is incubated with a sample containing HDAC activity, to produce the deacetylated products, which are then digested in the second step by the addition of developer to produce the fluorescent signal proportional to the amount of deacetylated substrates.
Human HDAC1 (GenBank Accession No. NM_004964), full length with C-terminal His-tag and C-terminal FLAG-tag, MW=56 kDa, expressed in baculovirus expression system.
(§3) Assay Buffer: 50 mM Tris-HCl, pH8.0, 137 mM NaCl, 2.7 mM KCl, 1 mM MgCl2. Before use, 1 mg/mL BSA and DMSO are added.
HDAC1: 2.68 nM HDAC1 and 50 m M HDAC substrate are in the reaction buffer with 1% DMSO final. Incubate for 2 hours at 30° C.
(§4) Stage 1: Deacetylation of substrate by incubation of HDAC enzymes with corn pounds
(§5) Stage 2: Development by addition of Developer to digest the deacetylated substrate, and generate the fluorescent colour; Detection: 360/460 Ex/Em

The target in another assay is T2, Recombinant human HDAC6 (Homo sapiens, UniProt Q9UBN7).
T2 construct: full length, MW=180 kDa, was expressed by baculovirus in Sf9 insect cells; GST (N); host or cells: Sf9 insect cells (baculovirus)
T2 sequence (Q9UBN7 1-1215): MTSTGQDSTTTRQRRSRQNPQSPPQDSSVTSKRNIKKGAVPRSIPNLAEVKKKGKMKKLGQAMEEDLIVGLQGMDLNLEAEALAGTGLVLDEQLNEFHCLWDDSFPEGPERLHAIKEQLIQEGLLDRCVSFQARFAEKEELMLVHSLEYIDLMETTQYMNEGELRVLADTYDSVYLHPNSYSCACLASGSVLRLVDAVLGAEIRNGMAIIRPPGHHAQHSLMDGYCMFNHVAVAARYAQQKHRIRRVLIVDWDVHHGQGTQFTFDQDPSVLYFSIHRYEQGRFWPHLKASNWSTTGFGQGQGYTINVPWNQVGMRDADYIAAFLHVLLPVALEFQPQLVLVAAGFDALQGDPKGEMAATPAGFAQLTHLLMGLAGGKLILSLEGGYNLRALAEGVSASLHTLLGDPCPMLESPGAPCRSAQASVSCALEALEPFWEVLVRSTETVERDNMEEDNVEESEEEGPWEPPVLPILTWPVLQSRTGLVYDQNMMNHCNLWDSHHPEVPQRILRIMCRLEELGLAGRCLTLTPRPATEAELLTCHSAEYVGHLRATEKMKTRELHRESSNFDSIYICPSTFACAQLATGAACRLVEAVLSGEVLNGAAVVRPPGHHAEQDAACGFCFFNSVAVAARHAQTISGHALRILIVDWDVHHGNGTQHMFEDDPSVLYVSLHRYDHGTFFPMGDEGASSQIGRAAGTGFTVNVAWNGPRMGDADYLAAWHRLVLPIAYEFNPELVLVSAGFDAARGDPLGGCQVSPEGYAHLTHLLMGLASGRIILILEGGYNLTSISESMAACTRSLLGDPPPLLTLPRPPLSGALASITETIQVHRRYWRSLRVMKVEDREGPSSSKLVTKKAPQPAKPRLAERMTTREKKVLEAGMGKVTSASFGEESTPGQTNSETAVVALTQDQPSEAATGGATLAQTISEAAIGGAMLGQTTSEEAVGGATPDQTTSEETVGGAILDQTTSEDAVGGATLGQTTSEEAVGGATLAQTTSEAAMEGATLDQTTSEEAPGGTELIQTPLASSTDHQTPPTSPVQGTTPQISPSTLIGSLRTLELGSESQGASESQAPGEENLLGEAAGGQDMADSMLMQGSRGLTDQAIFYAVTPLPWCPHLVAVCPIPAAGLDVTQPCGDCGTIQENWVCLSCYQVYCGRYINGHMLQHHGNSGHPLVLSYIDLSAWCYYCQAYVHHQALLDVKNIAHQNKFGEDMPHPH
In words: Biochemical HDAC inhibition assay, acetylated AMC-labeled peptide substrate, HDAC6. To be noted: 2 hours at 30° C., read-out: IC50 (nM) HDAC 6. The protocol:
as §1, §2
Recombinant human HDAC6 (GenBank Accession No. BC069243), full length, MW=180 kDa, was expressed by baculovirus in Sf9 insect cells using an N-terminal GST tag.
as §3
HDAC6: 0.56 nM HDAC6 and […] HDAC substrate are in the reaction buffer with 1% DMSO final. Incubate for 2 hours at 30° C.
as §4, §5

T1 sequence (Q13547 whole entry): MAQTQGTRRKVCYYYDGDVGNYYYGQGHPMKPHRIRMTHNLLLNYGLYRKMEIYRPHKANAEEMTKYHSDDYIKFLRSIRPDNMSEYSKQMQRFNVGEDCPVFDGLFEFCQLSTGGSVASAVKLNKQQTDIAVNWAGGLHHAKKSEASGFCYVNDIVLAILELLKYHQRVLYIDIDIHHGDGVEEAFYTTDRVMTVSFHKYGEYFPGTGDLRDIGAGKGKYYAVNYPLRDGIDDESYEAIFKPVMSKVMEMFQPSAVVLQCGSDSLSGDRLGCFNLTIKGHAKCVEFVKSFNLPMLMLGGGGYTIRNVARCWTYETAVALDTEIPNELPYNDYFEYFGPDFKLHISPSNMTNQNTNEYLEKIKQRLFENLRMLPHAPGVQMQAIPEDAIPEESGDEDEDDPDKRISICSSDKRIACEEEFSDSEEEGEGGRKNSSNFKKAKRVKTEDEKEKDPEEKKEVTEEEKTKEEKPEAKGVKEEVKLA

For `Nc1ncc(-c2ccnc(N(Cc3ccc(C(=O)NO)cc3)c3cnccn3)c2)cn1` [Example A, 4-({[4-(2-Aminopyrimidin-5-yl)pyridin-2-yl](pyrazin-2-yl)amino}methyl)-N-hydroxybenzamide], the IC50 (in general, the midpoint of a concentration-inhibition curve) on Human HDAC1 is 1000 to 10000 nM; at Recombinant human HDAC6, ≤ 500 nM.
`O=C(NO)c1ccc(CN(c2cnccn2)c2cc(-c3cnc4[nH]ccc4c3)ccn2)cc1` [Example B, N-Hydroxy-4-{[(pyrazin-2-yl)(4-{1H-pyrrolo[2,3-b]pyridin-5-yl}pyridin-2-yl)amino]methyl}benzamide]: the IC50 on Human HDAC1 was 1000 to 10000 nM; at Recombinant human HDAC6, ≤ 500 nM.
Take `O=C(NO)c1ccc(CN(c2cnccn2)c2cc(-c3ccc4[nH]ccc4c3)ccn2)cc1` [Example C, N-Hydroxy-4-({[4-(1H-indol-5-yl)pyridin-2-yl](pyrazin-2-yl)amino}methyl)benzamide]: the half-inhibitory concentration (IC50) on Human HDAC1 was 500 to 1000 nM; at Recombinant human HDAC6 it was ≤ 500 nM.
Taken in the same sequence, the figures for `O=C(NO)c1ccc(CN(c2cnccn2)c2cc(-c3cn[nH]c3)ccn2)cc1` [Example D, N-Hydroxy-4-{[(pyrazin-2-yl)[4-(1H-pyrazol-4-yl)pyridin-2-yl]amino]methyl}benzamide] were 1000 to 10000 nM and ≤ 500 nM.
The like results for `O=C(NO)c1ccc(CN(c2cnccn2)c2cc(-c3ccoc3)ccn2)cc1` [Example E, 4-({[4-(Furan-3-yl)pyridin-2-yl](pyrazin-2-yl)amino}methyl)-N-hydroxybenzamide] were, in that order, 500 to 1000 nM and ≤ 500 nM.
The like results for `Cc1cc(-c2ccnc(N(Cc3ccc(C(=O)NO)cc3)c3cnccn3)c2)c(C)o1` [Example F, 4-({[4-(2,5-Dimethylfuran-3-yl)pyridin-2-yl](pyrazin-2-yl)amino}methyl)-N-hydroxybenzamide] were, in that order, 1000 to 10000 nM and ≤ 500 nM.
As to `O=C(NO)c1ccc(CN(c2cnccn2)c2cc(-c3c[nH]nc3C(F)(F)F)ccn2)cc1` [Example G, N-Hydroxy-4-{[(pyrazin-2-yl)({4-[3-(trifluoromethyl)-1H-pyrazol-4-yl]pyridin-2-yl})amino]methyl}benzamide], the half-maximal inhibitory concentration (IC50) on Human HDAC1 is 1000 to 10000 nM; on Recombinant human HDAC6, ≤ 500 nM.
With `Cc1noc(C)c1-c1ccnc(N(Cc2ccc(C(=O)NO)cc2)c2cnccn2)c1` [Example H, 4-({[4-(Dimethyl-1,2-oxazol-4-yl)pyridin-2-yl](pyrazin-2-yl)amino}methyl)-N-hydroxybenzamide], the figures for the 50% inhibitory concentration (IC50) on Human HDAC1 and at Recombinant human HDAC6 were ≥ 10000 nM and ≤ 500 nM, respectively.
The like results for `Cc1n[nH]cc1-c1ccnc(N(Cc2ccc(C(=O)NO)cc2)c2cnccn2)c1` [Example I, N-Hydroxy-4-({[4-(3-methyl-1H-pyrazol-4-yl)pyridin-2-yl](pyrazin-2-yl)amino}methyl)benzamide] were, in that order, ≥ 10000 nM and ≤ 500 nM.
The like results for `Cc1n[nH]c(C)c1-c1ccnc(N(Cc2ccc(C(=O)NO)cc2)c2cnccn2)c1` [Example J, 4-({[4-(3,5-Dimethyl-1H-pyrazol-4-yl)pyridin-2-yl](pyrazin-2-yl)amino}methyl)-N-hydroxybenzamide] were, in that order, 1000 to 10000 nM and ≤ 500 nM.
Turning to `O=C(NO)c1ccc(CN(c2cnccn2)c2cc(-c3c[nH]c4ncccc34)ccn2)cc1` [Example K, N-Hydroxy-4-{[(pyrazin-2-yl)(4-{1H-pyrrolo[2,3-b]pyridin-3-yl}pyridin-2-yl)amino]methyl}benzamide], the IC50 on Human HDAC1 is 1000 to 10000 nM; on Recombinant human HDAC6 it was ≤ 500 nM.
The like results for `O=C(NO)c1ccc(CN(c2cnccn2)c2cc(-c3cc[nH]n3)ccn2)cc1` [Example L, N-Hydroxy-4-{[(pyrazin-2-yl)[4-(1H-pyrazol-3-yl)pyridin-2-yl]amino]methyl}benzamide] were, in that order, 1000 to 10000 nM and ≤ 500 nM.
Taken in the same sequence, the figures for `Nc1ncc(-c2ccnc(N(Cc3ccc(C(=O)NO)cc3)c3cnccn3)c2)cc1F` [Example M, 4-({[4-(6-Amino-5-fluoropyridin-3-yl)pyridin-2-yl](pyrazin-2-yl)amino}methyl)-N-hydroxybenzamide] were 1000 to 10000 nM and ≤ 500 nM.
The like results for `CC(=O)Nc1ccc(-c2ccnc(N(Cc3ccc(C(=O)NO)cc3)c3cnccn3)c2)cn1` [Example N, 4-({[4-(6-Acetamidopyridin-3-yl)pyridin-2-yl](pyrazin-2-yl)amino}methyl)-N-hydroxybenzamide] were, in that order, 1000 to 10000 nM and ≤ 500 nM.
On to `CC(=O)Nc1cc(-c2ccnc(N(Cc3ccc(C(=O)NO)cc3)c3cnccn3)c2)ccn1` [Example O, 4-({[4-(2-Acetamidopyridin-4-yl)pyridin-2-yl](pyrazin-2-yl)amino}methyl)-N-hydroxybenzamide], for which the IC50 on Human HDAC1 was 1000 to 10000 nM; on Recombinant human HDAC6, ≤ 500 nM.
The like results for `Nc1ccc(-c2ccnc(N(Cc3ccc(C(=O)NO)cc3F)c3cnccn3)c2)cn1` [Example P, 4-({[4-(6-Aminopyridin-3-yl)pyridin-2-yl](pyrazin-2-yl)amino}methyl)-3-fluoro-N-hydroxybenzamide] were, in that order, 500 to 1000 nM and ≤ 500 nM.
The like results for `Nc1cc(-c2ccnc(N(Cc3ccc(C(=O)NO)cc3F)c3cnccn3)c2)ccn1` [Example Q, 4-({[4-(2-Aminopyridin-4-yl)pyridin-2-yl](pyrazin-2-yl)amino}methyl)-3-fluoro-N-hydroxybenzamide] were, in that order, 1000 to 10000 nM and ≤ 500 nM.
The like results for `CC(=O)Nc1ccc(-c2ccnc(N(Cc3ccc(C(=O)NO)cc3F)c3cnccn3)c2)cn1` [Example R, 4-({[4-(6-Acetamidopyridin-3-yl)pyridin-2-yl](pyrazin-2-yl)amino}methyl)-3-fluoro-N-hydroxybenzamide] were, in that order, 1000 to 10000 nM and ≤ 500 nM.
With `CC(=O)Nc1cc(-c2ccnc(N(Cc3ccc(C(=O)NO)cc3F)c3cnccn3)c2)ccn1` [Example S, 4-({[4-(2-Acetamidopyridin-4-yl)pyridin-2-yl](pyrazin-2-yl)amino}methyl)-3-fluoro-N-hydroxybenzamide], the IC50 at Human HDAC1 is 1000 to 10000 nM; on Recombinant human HDAC6 it was ≤ 500 nM.
In the case of `CS(=O)(=O)Nc1ccc(-c2ccnc(N(Cc3ccc(C(=O)NO)cc3F)c3cnccn3)c2)cn1` [Example T, 3-Fluoro-N-hydroxy-4-({[4-(6-methanesulfonamidopyridin-3-yl)pyridin-2-yl](pyrazin-2-yl)amino}methyl)benzamide], the IC50 at Human HDAC1 is ≥ 10000 nM; at Recombinant human HDAC6, ≤ 500 nM.
Taken in the same sequence, the figures for `CS(=O)(=O)Nc1cc(-c2ccnc(N(Cc3ccc(C(=O)NO)cc3F)c3cnccn3)c2)ccn1` [Example U, 3-Fluoro-N-hydroxy-4-({[4-(2-methanesulfonamidopyridin-4-yl)pyridin-2-yl](pyrazin-2-yl)amino}methyl)benzamide] were ≥ 10000 nM and ≤ 500 nM.
